Patent publication US6566047B1, “Method for identifying neurite-growth promoting agents” (The Regents of the University of Colorado, priority 1998, dated 2003)

Assays:
Assay type in all cases: biochemical, rat
cPLA2 = assay: PLA2 activity (14C-AA release) in MAT-Lu cells; settings: thrombin 200 nM
Method: MAT-Lu cells were plated at a density of 0.5×10^6 cells per flask (T-75) and grown as detailed above to approximately 25% confluency. On the day before the experiments, the serum level in the medium was dropped to 1%. Cells were fed with fresh 1% serum-medium 4 hrs prior to harvest. For harvesting, cells were rinsed with Ca^++,Mg^++-free HBSS, covered with 2 ml cold Ca^++-free modified Krebs buffer (220 mM sucrose, 50 mM NaCl, 5 mM KCl, 22 mM HEPES, 10 mM glucose. 1.2 mM NaH2PO4 and 1.2 mM MgCl2, pH 7.3), and placed on ice. Cells were scraped off, pelleted for 5 min at 200 rpm and re-suspended in a minimal volume of Krebs buffer. Aliquots were used to determine protein concentration (Biorad Assay) and phopholipase activity. To measure PLA2 activity 10-12 μg of cell protein was incubated with or without thrombin for 10 min on ice, ^14C-AA-labeled phospholipid substrate (7 μM. 40-60 mCi/mmol) was added, and the mixture was transferred to 37° for 20 min. The reaction was stopped by adding cold cliloroform/methanol (1:2 v/v). Lipid extraction followed by thin-layer chromatography (Negre-Aminou et al., J Neurochem 67:2599-2608 (1996)) isolated the reaction product (identified by co-migration with AA standard), which was then scraped off the plates and analyzed in a scintillation spectrometer (Beckman). In some experiments, especially those involving ^14C-AA-phosphatidylinositol as substrate, the diacylglycerol-containing band (identified by co-migration of standard) also was scraped and counted in order to measure phospholipase C (PLC) activity.

growth cone PLA2 = assay: PLA2 assay in growth cone particles (GCPs); settings: for net activity (pmol/min/mg protein), GCPs: Table 3a, 100 nM
Method: Growth Cone Particle (GCP) Isolation. GCPs were prepared as described by Pfenninger et al. (1983) and modified by Lohse et al., Dev. Brain Res., 96:38-96 (1996). Briefly, 18-day fetal brains were homogenized in approximately 8 volumes of 0.32 M sucrose containing 1 mM MgCl2, 2 mM TES buffer, pH 7.3, and 3 μM aprotinin. A low-speed supernatant (1,660 g×15 min) was loaded onto a discontinuous sucrose density gradient With steps of 0.83 M and 2.66 M sucrose containing MgCl2 and TES. The gradients were spun to equilibrium at 242,000 g for 40 min in a vertical rotor (Vti50, Beckman). The GCP fraction at the 0.32/0.83 M sucrose interface was collected and used for the experiments described below.
(§1) All assays were run in triplicate.

growth cone PLC = assay: Phospholipase C assay (DG release) in GCPs; settings: GCPs; thrombin 100 nM; calcium-dependent
Excerpt: as §1

12-Lox = assay: Eicosanoid (HETE) generation in GCPs
Method: Eicosanoid Assays. Eicosanoid production in GCPs was measured by metabolic labelling from ^14C-AA or ^14C-AA-PC or by mass spectrometric detection. […] To measure Lox activity directly, without PLA2 involvement, ^3H-AA was the substrate of choice. Reactions were stopped by the addition of chloroform/methanol as for the phospholipase assays. Reaction products were extracted as described by Birkle et al., Neuromethods, vol. 7, pp.227-244 (Humana Press, N.J. 1988), spotted on pre-activated si gel 60 TLC plates, and the plates developed in the upper phase of ethyl acetate/isooctane/acetic acid/water (100:60:20:100). AA and HETEs were identified by co-migration with standards. Appropriate bands were counted by liquid scintillation spectrometry.
For mass-spectrometric (MS) identification of HETEs, two different strategies were pursued:
(1) the appropriate bands from non-labelled samples (PC substrate) were scraped from the TLC plate into ether/methanol (9:1) and stored under N2 at −20° C. Authentic 12(S)-HETE, run alongside in the same manner, was used as a standard. Just prior to analysis, samples were passed over an SPE filter to eliminate silica particles, dried under argon, resuspended in 500 μl ethanol, and injected (at 3 μl/min) into a Finnigan LCQ quadrupole ion trap mass spectrometer (Finnigan MAT, San Jose, Calif.) equipped with an electrospray ionization source. All spectra were acquired at a capillary temperature of 80° C., and ion guide voltages were tuned to maximize the abundance of the deprotonated ion species [M-H]^− in negative mode. In order to generate a spectrum, typically 100 single scans were averaged.
(2) For the other strategy (liquid chromatography/tandem MS, LC/MS^2), the reaction substrate consisted of 3.5 μM AA, with the addition of 3.5 μM deuterated AA (AA-D8) plus 1 μCi ^3H-AA to track reaction products by mass and radioactivity, respectively. Reactions were stopped with ice-cold ethanol, the mixtures kept overnight at −20° C. under N2, and the proteins spun out The supernatants were diluted with H2O and loaded onto 1-ml C18 Sep-Pak columns (Varian). After washing with H2O, eicosanoid was eluted with 2 ml methanol. These samples were resolved by reverse-phase HPLC, and the eluted fractions analyzed by tandem MS on-line (MacMillan and Murphy, 1995). Collision-induced decomposition of HETE isomers produced characteristic fragments that were identified at the second MS stage.

thrombin: potent growth cone repellent; commercially available thrombin (Sigma); rat thrombin in Boyden assays
increase of PLA2 activity (AA release), PE substrate (cPLA2): 40-50 fold
concentration at which PLA2 activation saturates (growth cone PLA2; AA release from PI): about 250 nM
net activity (pmol/min/mg protein), GCPs (growth cone PLA2; substrate PE): 210.2 ± 4.8 pmol/min/mg protein
net activity (pmol/min/mg protein), GCPs (growth cone PLA2; substrate PI): 262 ± 47 pmol/min/mg protein
net activity (pmol/min/mg protein), no DTT (growth cone PLA2; Table 3b, GCPs, substrate PI, thrombin 100 nM): 221 ± 39.9 pmol/min/mg protein
net activity (pmol/min/mg protein), 50 nM DTT (growth cone PLA2; Table 3b, GCPs, substrate PI, thrombin 100 nM or control): 223 ± 53.4 pmol/min/mg protein
net activity (pmol/min/mg protein) (growth cone PLA2; Table 3c, GCPs, substrate PI, BDNF 100, IGF-1 0.75, insulin 1, thrombin 200 nM, control 159 ± 6.2): 355 ± 28.0 pmol/min/mg protein
stimulation of PC-hydrolyzing cPLA2 (14C-AA release from PC) (growth cone PLA2; thrombin 100 nM, GCPs): about 7 fold
stimulation of cPLA2-PE (14C-AA release from PE) (growth cone PLA2; thrombin 100 nM, GCPs): ~7 fold
stimulation of cPLA2-PI (14C-AA release from PI) (growth cone PLA2; thrombin 100 nM, GCPs): about 5 fold
stimulation of PC-hydrolyzing cPLA2 (14C-AA release from PC) (growth cone PLA2; thrombin 100 nM, GCPs, listed as Thrombin): ~7 fold
effect on DG release from PI (growth cone PLC): inhibits DG release, rather than stimulating it
effect on HETE production from AA (12-Lox; 3H-AA substrate): does indeed stimulate HETE production from AA
increase of radioactivity co-migrating with 12-HETE above control (12-Lox; 14C-AA-PC substrate, thrombin 100 nM): approximately 2.5 fold
increase of MS peak at m/z 381 in TLC band co-migrating with 12(S)-HETE (12-Lox; GCPs first stimulated with thrombin): ~2 fold
increase in generation of compound co-migrating with 12(S)-HETE from 14C-AA-labelled phospholipid, relative to controls (12-Lox; growth cones stimulated with thrombin): 4-8 fold
